In a melting point compilation (Tetko et al.; mined from patent text by program, amines drawn as free bases though some values may be those of a salt):

SMILES	melting point [°C]
CCNCC1CCN(c2c(F)cc3c(=O)c(C(=O)O)cn(C4CC4C)c3c2F)C1 (stereo not given)	225 to 228
COc1nc(C(F)(F)F)c(F)c(=O)n1-c1cc(C(=O)OC(C)C)c(Cl)cc1F	104 to 106
N#Cc1ccc(-c2ccc(OCC(COc3ccccc3)N(O)C=O)cc2)cc1 (stereo not given)	133 to 135
COc1ccc(-c2ccc(OC3SCC(OC(C)=O)C(OC(C)=O)C3OC(C)=O)cn2)cn1 (stereo not given)	74
CCCCOc1ccc(S(=O)(=O)C2(C(=O)NO)CCN(C)CC2)cc1	118
CS(=O)(=O)Nc1ccc([N+](=O)[O-])cc1OC1CCCCC1	136 to 137
COC(CNC(=O)CCN1C(=O)NC(C)(C)C1=O)OC	123
Cc1cc(=O)[nH]c2nc(OCCCCN3CCN(c4cccc(Cl)c4Cl)CC3)ccc12	181 to 182
NS(=O)(=O)c1ccc(-n2nc(C(F)F)cc2-c2ccc3c(c2)OCO3)cc1	214 to 218
O=S1(=O)c2cccc3cccc(c23)N1CCCN1CC=C(c2c[nH]c3ccccc23)CC1	226
CC(C)N(CCC(c1ccccc1)c1cc(Br)ccc1OCc1ccccc1)C(C)C (stereo not given)	52 to 56
COc1ccc(S(=O)(=O)N(CCC(C)C)CC(O)C(Cc2ccccc2)NC(=O)C(C)CS(C)(=O)=O)cc1 (stereo not given)	125 to 129
Cc1ccc2c(c1)C(NC(=O)CCCN1CCN(c3ccc(F)cc3)CC1)c1ccccc1CS2(=O)=O (stereo not given)	163 to 165
CN1C(=O)CN(N)C(c2ccccc2)c2cc(Cl)ccc21 (stereo not given)	147 to 148
Cc1ccccc1OC1CCN(CCc2c[nH]c3ccccc23)CC1	88 to 90
CNC(=O)[C@@H]1CCCN1S(=O)(=O)c1ccc(Cl)c(COc2cccc3c(-n4ccnc4)cc(C)nc23)c1Cl	90
CCCCCCCCCCCCCCCCCCOc1cccc(C(=O)C(=O)O)c1	77 to 79
CC(C)(C)c1ccc(C2CCSC(c3c(F)cccc3F)=N2)cc1 (stereo not given)	91 to 91.5
C=CCN(CC=C)S(=O)(=O)c1ccc([N+](=O)[O-])cc1[N+](=O)[O-]	105 to 106
COc1cc(N)c(Cl)cc1C(=O)N[C@@H]1CCN(CCCC(=O)N2CCCC2)C[C@H]1O (relative stereo)	175
CN1C(=O)C2C3CCC(CC3)C2(c2ccc(F)c(F)c2)C1=O (stereo not given)	133 to 136

SMILES	melting point [°C]
NC1=NC(c2ccc(OC(F)(F)F)cc2)(c2cccc(-c3cncc(F)c3)c2)C2=NCCON12 (stereo not given)	120 to 135
Cc1cc(N=C2NCCN2)cc(NS(C)(=O)=O)c1C	254 to 255
COc1cc([N+](=O)[O-])c2ncccc2c1OCc1ccc(Cl)cc1	115 to 116
CN1CCC(=C2c3ccccc3Sc3ccc(SC(F)(F)F)cc32)CC1	104 to 106
Cc1oc(C(C)C)cc1C(=O)O	88.5
CSc1nc(-c2cccnc2)n(-c2ccc(F)cc2)c(=O)c1C#N	190 to 193
CC(C)c1ccc(CNc2ccc(S(=O)(=O)O)cc2)cc1	> 275
COC(=O)COc1c(Br)cc(-c2c3ccccc3c(Br)c3sc4ccccc4c23)cc1Br	183 to 184
COc1ccc(S(=O)(=O)C2(C(=O)O)CCN(Cc3ccc(C)cc3)CC2)cc1	176 to 177
CCN(CC)c1cccc2nc3n(c12)CC(OC)CCN3c1ccc(Cl)cc1Cl (stereo not given)	120 to 122
CN(c1cccc2cc(-c3ncc(CC#N)s3)[nH]c12)S(=O)(=O)c1cccs1	186 to 187
CCNC(=O)c1nnc(S)o1	210
OC1CSC(Oc2cc(-c3ccccn3)cc(F)c2F)C(O)C1O (stereo not given)	162
CC(C)CC(=O)Nc1cccc(-c2ccnc3c(-c4ccc(Cl)c(Cl)c4)cnn23)c1	215 to 217
COc1ccc(Cl)cc1NC(=S)C1CCCCn2c1nc(-c1ccncn1)cc2=O (racemic)	220 to 223
O=[N+]([O-])C=C1CN=C(c2ccccc2)c2sccc2N1	160 to 163
Clc1ccc2c(C3CCN(CCCC4Cc5ccccc5C4)CC3)c[nH]c2c1	134 to 135
CCOC(=O)/C=C/C=C(c1cccc([N+](=O)[O-])c1)c1cccc([N+](=O)[O-])c1	105 to 106
CC(C)(C)OC(=O)N1CCc2c(oc3cc(S(=O)(=O)c4cccc(F)c4)ccc23)C1(C)C	58 to 60
CCc1cc2c(s1)SCc1cc(=O)n(-c3ccc(Cl)cc3)nc1-2	161 to 163

Further lines, results first:

melting point [°C]	SMILES
113 to 115	CCCC(=O)c1cnc2c(O)cccc2c1Nc1ccccc1C
92 to 93	CCCCCCCNC(=O)N(C)c1cccc(-c2ccc(CCC(=O)O)c(F)c2)c1
219 to 221	CCC(=O)NCc1cccc2c1C(=O)N(C1CCC(=O)NC1=O)C2=O (stereo not given)
154 to 155	O=C(O)CCc1nc(-c2cc3ccccc3o2)no1
125	COc1ccc(Cc2cccc(C(Cl)(C3=NCCCN3)c3ccccc3)c2)cc1 (stereo not given)
170 to 173	Cc1cn(Cc2ccccc2)c(=O)[nH]c1=O
221	Cc1cc(Cl)cc(C(=O)Nc2ccnc(Cl)c2)n1
200 to 201	CS(=O)(=O)NCCCCn1c(CC2CC2)nc2c(N)nc3ccccc3c21
232 to 234	COc1ccc2c(c1)CCn1c-2ncc(C(=O)O)c1=O
111 to 112	CCN(CC)C(=O)c1ccc2ccccc2c1-c1ccc(C(F)(F)F)cc1
180 to 182	CC(C)S(=O)(=O)n1c(N)nc2ccc(C(=CBr)c3ccccc3)cc21
136 to 138	O=[N+]([O-])c1cc(-c2nc(-c3ccco3)no2)ccc1Cl
181 to 185	Cc1nc(N)nc(N)c1CCCc1ccc(Cl)cc1Cl
100	CN(C)CCC1(CO)c2ccccc2N(C)c2ccc(Cl)cc21 (stereo not given)
224 to 225	N#Cc1cc(NC(=O)c2cc3ccccc3s2)ccc1N1CCC(O)CC1
71 to 72	CC(C)c1cc(Oc2ccccc2)cc(C(C)C)c1N
172 to 173	CC(=N)Nc1nc(-c2ccccn2)nc2ccccc12
195 to 196	CC(=O)Nc1ccc2ccn(C3CCN(CCc4ccc(F)cc4)CC3)c2c1
97 to 100	O=C(COC(=O)Cc1ccccc1Nc1cc2c(cc1Cl)CCC2)OCc1ccccc1
186	CN(c1ccc2ccccc2c1)S(=O)(=O)C(Cc1ccccc1)C(=O)NC(Cc1ccc(C#N)cc1)C(=O)N1CCCC1 (stereo not given)
100 to 103	COc1ccc(-c2nc(-c3ccccn3)cs2)cc1
75 to 79	CCN1CC(CCCl)N(C)c2ccccc2C1=O (stereo not given)
172 to 180	Cc1ccc2c(cc(CCCC(=O)O)n2S(=O)(=O)c2ccccc2)n1
277 to 278	COc1ccc(S)c(-n2c(=O)[nH]cc(C(=O)O)c2=O)c1
134 to 136	CN(C(=O)c1ccc(Cn2cnc3c(Cl)nc(Cl)nc32)cc1)C1CCCCC1
182	N#CCCc1ccc(C(=O)O)cc1
202 to 206	COC(=O)Cn1c(C(=O)NC(N)=S)cc2cc(OC)ccc21
193 to 194	COc1ccc2c(c1OC)C(=O)OC21CN(C)Cc2ccccc21 (stereo not given)
165 to 168	O=C(c1ccccc1)c1[nH]c2cc(Cl)ccc2c1NC(=O)C(F)(F)F
